Experimental data from ChEMBL document CHEMBL5346961, “Discovery and Evaluation of 3-Quinoxalin Urea Derivatives as Potent, Selective, and Orally Available ATM Inhibitors Combined with Chemotherapy for the Treatment of Cancer via Goal-Oriented Molecule Generation and Virtual Screening” (J Med Chem, 2023).

Legend:
[1] = molecular target: T1, Serine-protein kinase ATM (Homo sapiens, UniProt Q13315); test: Inhibition of ATM (unknown origin) assessed as remaining activity at 1 uM preincubated with compound for 30 mins followed by substrate addition and measured after 2 hrs by HTRF method relative to control; conditions: time 2.5 hrs
[2] = Metabolic stability in human liver microsomes assessed as half life at 1 uM in presence of NADPH-regenerating system by LC-MS/MS analysis; format: ADME, Microsome
[3] = molecular target: T1, Serine-protein kinase ATM; test: Inhibition of ATM (unknown origin) assessed as remaining activity at 0.01 uM preincubated with compound for 30 mins followed by substrate addition and measured after 2 hrs by HTRF method relative to control; conditions: time 2.5 hrs
[4] = system: HCT-116; test: Inhibition of colony formation in human HCT-116 cells at 0.01 uM preincubated for 1 hr followed by exposure to 2 Gy gamma irradiation and measured after 1 week by crystal violet staining based […] assay relative to control; format: functional; conditions: HCT-116, light or radiation study, time 169 hrs
[5] = Metabolic stability in human liver microsomes assessed as clearance at 1 uM in presence of NADPH-regenerating system by LC-MS/MS analysis; format: ADME, Microsome
[6] = molecular target: Serine/threonine-protein kinase ATR (Homo sapiens, UniProt Q13535); test: Inhibition of ATR (unknown origin) assessed as remaining activity at 1 uM in presence of [gamma33P-ATP] by radiometric assay
[7] = molecular target: T1, Serine-protein kinase ATM; test: Inhibition of ATM (unknown origin) preincubated with compound for 30 mins followed by substrate addition and measured after 2 hrs by HTRF method

T1 sequence (Q13315 whole entry): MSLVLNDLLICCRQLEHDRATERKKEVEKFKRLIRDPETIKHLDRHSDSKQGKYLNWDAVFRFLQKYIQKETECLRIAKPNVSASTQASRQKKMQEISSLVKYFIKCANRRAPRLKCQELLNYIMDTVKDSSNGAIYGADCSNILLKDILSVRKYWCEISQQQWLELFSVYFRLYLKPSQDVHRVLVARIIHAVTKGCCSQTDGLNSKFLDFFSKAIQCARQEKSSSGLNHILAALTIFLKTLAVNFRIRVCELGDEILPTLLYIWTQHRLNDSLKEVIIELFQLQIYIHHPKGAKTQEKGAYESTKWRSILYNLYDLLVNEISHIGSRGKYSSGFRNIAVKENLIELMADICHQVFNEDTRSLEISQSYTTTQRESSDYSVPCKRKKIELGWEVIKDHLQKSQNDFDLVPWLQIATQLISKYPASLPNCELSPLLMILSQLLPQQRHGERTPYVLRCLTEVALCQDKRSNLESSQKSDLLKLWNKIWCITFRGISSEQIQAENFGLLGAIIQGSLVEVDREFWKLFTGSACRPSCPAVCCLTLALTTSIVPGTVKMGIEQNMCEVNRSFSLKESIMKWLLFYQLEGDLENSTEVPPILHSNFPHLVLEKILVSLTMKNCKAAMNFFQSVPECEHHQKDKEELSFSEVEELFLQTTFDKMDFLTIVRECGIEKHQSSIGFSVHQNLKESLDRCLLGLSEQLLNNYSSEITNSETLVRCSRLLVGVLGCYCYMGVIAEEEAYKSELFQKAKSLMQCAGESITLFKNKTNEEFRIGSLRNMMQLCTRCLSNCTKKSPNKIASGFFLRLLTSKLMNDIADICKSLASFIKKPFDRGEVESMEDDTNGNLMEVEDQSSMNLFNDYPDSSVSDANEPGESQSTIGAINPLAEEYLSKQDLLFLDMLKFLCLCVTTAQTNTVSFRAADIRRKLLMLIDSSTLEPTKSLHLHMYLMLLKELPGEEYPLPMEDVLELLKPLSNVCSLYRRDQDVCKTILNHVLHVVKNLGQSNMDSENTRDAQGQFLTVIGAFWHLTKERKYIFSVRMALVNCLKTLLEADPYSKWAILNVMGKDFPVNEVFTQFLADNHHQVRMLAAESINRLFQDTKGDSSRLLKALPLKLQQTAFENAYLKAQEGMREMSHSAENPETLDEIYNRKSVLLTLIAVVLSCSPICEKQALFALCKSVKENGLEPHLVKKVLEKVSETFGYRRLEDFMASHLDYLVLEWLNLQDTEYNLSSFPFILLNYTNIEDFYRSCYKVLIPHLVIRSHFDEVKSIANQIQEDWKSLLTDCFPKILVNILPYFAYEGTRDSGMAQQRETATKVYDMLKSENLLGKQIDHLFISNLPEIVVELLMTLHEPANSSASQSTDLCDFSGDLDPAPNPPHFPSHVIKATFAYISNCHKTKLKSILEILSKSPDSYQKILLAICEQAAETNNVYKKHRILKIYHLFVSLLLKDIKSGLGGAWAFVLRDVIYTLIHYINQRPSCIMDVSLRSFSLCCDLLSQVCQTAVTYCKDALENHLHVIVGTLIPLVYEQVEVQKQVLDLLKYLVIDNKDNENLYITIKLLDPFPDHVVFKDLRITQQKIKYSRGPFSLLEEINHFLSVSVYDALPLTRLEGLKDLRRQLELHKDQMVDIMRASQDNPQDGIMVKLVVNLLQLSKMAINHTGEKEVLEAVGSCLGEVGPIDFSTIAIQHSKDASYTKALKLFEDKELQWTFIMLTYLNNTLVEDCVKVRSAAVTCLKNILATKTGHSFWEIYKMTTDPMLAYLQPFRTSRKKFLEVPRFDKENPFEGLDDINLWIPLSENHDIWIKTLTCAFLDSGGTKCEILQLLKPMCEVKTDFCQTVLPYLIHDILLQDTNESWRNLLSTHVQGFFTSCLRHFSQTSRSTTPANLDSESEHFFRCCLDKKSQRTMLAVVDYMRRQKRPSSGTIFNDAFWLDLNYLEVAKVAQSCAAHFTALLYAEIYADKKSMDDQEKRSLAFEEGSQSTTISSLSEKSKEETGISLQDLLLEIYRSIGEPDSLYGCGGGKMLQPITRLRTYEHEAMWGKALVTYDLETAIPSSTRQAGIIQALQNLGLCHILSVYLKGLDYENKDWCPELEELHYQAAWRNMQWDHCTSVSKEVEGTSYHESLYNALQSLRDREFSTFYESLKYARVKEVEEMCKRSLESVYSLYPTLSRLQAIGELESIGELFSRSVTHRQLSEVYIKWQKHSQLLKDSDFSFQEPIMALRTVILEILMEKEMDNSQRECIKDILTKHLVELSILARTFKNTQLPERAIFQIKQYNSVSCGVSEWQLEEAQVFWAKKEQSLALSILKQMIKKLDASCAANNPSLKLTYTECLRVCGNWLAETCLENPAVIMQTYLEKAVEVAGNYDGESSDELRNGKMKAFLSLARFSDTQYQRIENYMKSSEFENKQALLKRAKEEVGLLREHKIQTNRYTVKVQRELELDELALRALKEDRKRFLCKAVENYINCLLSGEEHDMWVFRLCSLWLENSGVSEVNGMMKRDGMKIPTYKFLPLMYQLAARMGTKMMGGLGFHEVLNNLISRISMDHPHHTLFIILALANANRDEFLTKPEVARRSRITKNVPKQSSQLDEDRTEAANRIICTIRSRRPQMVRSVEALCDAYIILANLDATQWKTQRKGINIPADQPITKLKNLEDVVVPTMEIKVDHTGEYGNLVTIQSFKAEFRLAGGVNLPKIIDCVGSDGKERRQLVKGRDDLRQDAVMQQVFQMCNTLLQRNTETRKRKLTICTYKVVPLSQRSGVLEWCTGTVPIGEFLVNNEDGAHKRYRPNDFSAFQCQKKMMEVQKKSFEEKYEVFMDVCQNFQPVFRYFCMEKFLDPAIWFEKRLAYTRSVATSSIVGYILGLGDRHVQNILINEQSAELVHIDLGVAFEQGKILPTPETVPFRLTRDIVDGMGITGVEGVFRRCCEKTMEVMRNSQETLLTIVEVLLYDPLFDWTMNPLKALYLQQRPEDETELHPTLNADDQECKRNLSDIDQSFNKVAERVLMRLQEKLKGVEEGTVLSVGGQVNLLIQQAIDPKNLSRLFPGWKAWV

SMILES: CC(C)NC(=O)N(C)c1cnc2ccc(-c3ccc(OC(C)CN(C)C)nc3)cc2n1 (stereo unspecified)
- Activity [1]: 4%
- half-life at 1 µM [2]: 55 min
- Activity [3]: 94%
- inhibition at 0.01 µM [4]: 14.7%
- CLH [5]: 43 mL/min/g

SMILES: CC(C)NC(=O)N(C)c1cnc2ccc(-c3ccnc(OCCCN4CCCCC4)c3)cc2n1
- Activity [1]: 10%
- Activity [3]: 97%
- inhibition at 0.01 µM [4]: 32.2%

SMILES: CC(C)NC(=O)N(C)c1cnc2ccc(-c3ccc(OC4CCN(C)CC4)nc3)cc2n1
- Activity [1]: 25%
- Activity [3]: 100%
- inhibition at 0.01 µM [4]: -7.74%

SMILES: COc1ccc(NC(=O)N(C)c2cnc3ccc(-c4ccc(OCCCN(C)C)nc4)cc3n2)cc1
- half-life at 1 µM [2]: 51 min
- Activity [6]: 120%
- Activity [3]: 22%
- IC50 [7]: 3 nM
- inhibition at 0.01 µM [4]: -0.75%
- CLH [5]: 45 mL/min/g

SMILES: C=CCNC(=O)Nc1cnc2ccc(-c3ccc(OCCCN(C)C)nc3)cc2n1
- Activity [1]: -3%
- half-life at 1 µM [2]: 9 min
- Activity [6]: 101%
- CLH [5]: 151 mL/min/g

SMILES: CCCNC(=O)N(C)c1cnc2ccc(-c3ccc(OCCCN(C)C)nc3)cc2n1
- half-life at 1 µM [2]: 16 min
- Activity [6]: 102%
- Activity [3]: 12%
- IC50 [7]: 3 nM
- inhibition at 0.01 µM [4]: 77.4%
- CLH [5]: 84 mL/min/g

SMILES: CCCNC(=O)Nc1cnc2ccc(-c3ccc(OCCCN(C)C)nc3)cc2n1
- Activity [1]: -4%
- half-life at 1 µM [2]: 12 min
- Activity [6]: 99%
- CLH [5]: 120 mL/min/g

SMILES: CN(C)CCCOc1ccc(-c2ccc3ncc(NC(=O)NC(C)(C)C)nc3c2)cn1
- Activity [1]: -2%
- half-life at 1 µM [2]: 8 min
- Activity [6]: 94%
- CLH [5]: 185 mL/min/g

SMILES: CC(C)NC(=O)N(C)c1cnc2ccc(-c3cnc(OCCCN4CCCCC4)cc3F)cc2n1
- Activity [1]: -3%
- Activity [3]: 29%
- IC50 [7]: 5 nM
- inhibition at 0.01 µM [4]: 27.4%

SMILES: CC1CCC(NC(=O)N(C)c2cnc3ccc(-c4ccc(OCCCN(C)C)nc4)cc3n2)CC1 (stereo unspecified)
- half-life at 1 µM [2]: 19 min
- Activity [6]: 94%
- Activity [3]: 8%
- IC50 [7]: 2 nM
- inhibition at 0.01 µM [4]: 76.2%
- CLH [5]: 93 mL/min/g

SMILES: CC(C)NC(=O)N(C)c1cnc2ccc(-c3ccc(OCC4CCN(C)C4)nc3)cc2n1 (stereo unspecified)
- Activity [1]: 1%
- half-life at 1 µM [2]: 50 min
- Activity [3]: 72%
- IC50 [7]: 31 nM
- inhibition at 0.01 µM [4]: 32.9%
- CLH [5]: 40 mL/min/g

SMILES: CC(C)NC(=O)N(C)c1cnc2ccc(-c3ccc(OCCCCN(C)C)nc3)cc2n1
- Activity [1]: -1%
- half-life at 1 µM [2]: 35 min
- Activity [3]: 66%
- IC50 [7]: 26 nM
- inhibition at 0.01 µM [4]: 20.2%
- CLH [5]: 60 mL/min/g

SMILES: CC(C)NC(=O)N(C)c1cnc2ccc(-c3ccc(OCC4CCCN(C)C4)nc3)cc2n1 (stereo unspecified)
- Activity [1]: 0%
- half-life at 1 µM [2]: 55 min
- Activity [3]: 43%
- IC50 [7]: 22 nM
- inhibition at 0.01 µM [4]: -8.09%
- CLH [5]: 36 mL/min/g

SMILES: CC(C)NC(=O)Nc1cnc2ccc(-c3ccc(OCCCN(C)C)nc3)cc2n1
- Activity [1]: -4%
- half-life at 1 µM [2]: 15 min
- Activity [6]: 98%
- CLH [5]: 94 mL/min/g

SMILES: CC(C)NC(=O)N(C)c1cnc2ccc(-c3ccc(OCCCN4CCCCC4)nc3C#N)cc2n1
- Activity [1]: -4%
- half-life at 1 µM [2]: 277 min
- Activity [3]: 26%
- IC50 [7]: 16 nM
- inhibition at 0.01 µM [4]: 14%
- CLH [5]: 5.1 mL/min/g

SMILES: CCNC(=O)N(C)c1cnc2ccc(-c3ccc(OCCCN(C)C)nc3)cc2n1
- half-life at 1 µM [2]: 11 min
- Activity [6]: 104%
- Activity [3]: 33%
- IC50 [7]: 6 nM
- inhibition at 0.01 µM [4]: 57.8%
- CLH [5]: 127 mL/min/g

SMILES: COCCCOc1ccc(-c2ccc3ncc(N(C)C(=O)NC(C)C)nc3c2)cn1
- Activity [1]: 43%
- Activity [3]: 103%
- inhibition at 0.01 µM [4]: -24.2%

SMILES: CC(C)NC(=O)N(C)c1cnc2ccc(-c3ccc(OCCN4CCCC4)nc3)cc2n1
- Activity [1]: 1%
- Activity [3]: 76%
- inhibition at 0.01 µM [4]: 25%

SMILES: CC(C)NC(=O)N(C)c1cnc2ccc(-c3ccc(OCCCN4CCCC4=O)nc3)cc2n1
- Activity [1]: 71%
- half-life at 1 µM [2]: 90 min
- Activity [3]: 106%
- inhibition at 0.01 µM [4]: 33.7%
- CLH [5]: 19 mL/min/g

SMILES: CC(C)NC(=O)N(C)c1cnc2ccc(-c3ccc(OCCN(C)C)nc3)cc2n1
- Activity [1]: -2%
- half-life at 1 µM [2]: 46 min
- Activity [3]: 73%
- IC50 [7]: 30 nM
- inhibition at 0.01 µM [4]: -0.98%
- CLH [5]: 37 mL/min/g

SMILES: Cc1cc(-c2ccc3ncc(N(C)C(=O)NC(C)C)nc3c2)cnc1OCCCN1CCCCC1
- Activity [1]: 29%
- Activity [3]: 107%
- inhibition at 0.01 µM [4]: -28.4%

SMILES: CC(C)NC(=O)N(C)c1cnc2ccc(-c3cnc(OCCCN4CCCCC4)c(C(F)(F)F)c3)cc2n1
- Activity [1]: 10%
- Activity [3]: 90%
- inhibition at 0.01 µM [4]: -13.6%

SMILES: CC(C)NC(=O)N(C)c1cnc2ccc(-c3cnc(OCCCN4CCCCC4)c(F)c3)cc2n1
- Activity [1]: 6%
- Activity [3]: 94%
- inhibition at 0.01 µM [4]: -3.96%

SMILES: CC(C)NC(=O)N(C)c1cnc2ccc(-c3ccc(OCCN4CCN(C)CC4)nc3)cc2n1
- Activity [1]: 22%
- Activity [3]: 97%
- inhibition at 0.01 µM [4]: 22.8%

SMILES: CN(C)CCCOc1ccc(-c2ccc3ncc(N(C)C(=O)Nc4ccc(Cl)cc4)nc3c2)cn1
- Activity [6]: 111%
- Activity [3]: 37%
- inhibition at 0.01 µM [4]: 11.7%

SMILES: CN(C)CCCOc1ccc(-c2ccc3ncc(N(C)C(=O)Nc4cccc(C(F)(F)F)c4)nc3c2)cn1
- Activity [6]: 109%
- Activity [3]: 39%
- inhibition at 0.01 µM [4]: -11.9%

SMILES: CC(C)NC(=O)N(C)c1cnc2ccc(-c3ccc(OC4CCC(N(C)C)CC4)nc3)cc2n1 (stereo unspecified)
- Activity [1]: 54%
- Activity [3]: 108%
- inhibition at 0.01 µM [4]: 11.3%

SMILES: CC(C)NC(=O)N(C)c1cnc2ccc(-c3ccc(OCCC4CCCN4C)nc3)cc2n1 (stereo unspecified)
- Activity [1]: -3%
- half-life at 1 µM [2]: 48 min
- Activity [3]: 43%
- IC50 [7]: 10 nM
- inhibition at 0.01 µM [4]: 36.5%
- CLH [5]: 51 mL/min/g

SMILES: CC(C)NC(=O)N(C)c1cnc2ccc(-c3ccc(OCCN4CCOCC4)nc3)cc2n1
- Activity [1]: 13%
- Activity [3]: 94%
- inhibition at 0.01 µM [4]: 16.9%

SMILES: CN(C)CCCOc1ccc(-c2ccc3ncc(N(C)C(=O)N[C@]45C[C@@H]6C[C@H](C[C@@H](C6)C4)C5)nc3c2)cn1
- half-life at 1 µM [2]: 73 min
- Activity [6]: 101%
- Activity [3]: 37%
- IC50 [7]: 8 nM
- inhibition at 0.01 µM [4]: -3.67%
- CLH [5]: 19 mL/min/g

SMILES: Cc1cc(OCCCN2CCCCC2)ncc1-c1ccc2ncc(N(C)C(=O)NC(C)C)nc2c1
- Activity [1]: 22%
- Activity [3]: 96%
- inhibition at 0.01 µM [4]: -19.8%

SMILES: CC(C)CCCOc1ccc(-c2ccc3ncc(N(C)C(=O)NC(C)C)nc3c2)cn1
- Activity [1]: 33%

SMILES: CN(C)CCCOc1ccc(-c2ccc3ncc(N(C)C(=O)NC(C)(C)C)nc3c2)cn1
- half-life at 1 µM [2]: 14 min
- Activity [6]: 98%
- Activity [3]: 22%
- IC50 [7]: 13 nM
- inhibition at 0.01 µM [4]: 44.7%
- CLH [5]: 100 mL/min/g

SMILES: CC(C)NC(=O)N(C)c1cnc2ccc(-c3ccc(OCCN4CCCCC4)nc3)cc2n1
- Activity [1]: 4%
- half-life at 1 µM [2]: 38 min
- Activity [3]: 86%
- inhibition at 0.01 µM [4]: 24%
- CLH [5]: 47 mL/min/g

SMILES: CN(C)CCCOc1ccc(-c2ccc3ncc(NC(=O)NC4CCCC4)nc3c2)cn1
- Activity [1]: -5%
- half-life at 1 µM [2]: 10 min
- Activity [6]: 98%
- CLH [5]: 144 mL/min/g
